According to US12319664B2, “Herbicidally active 3-phenylisoxazoline-5-carboxamides of cyclopentenylcarboxylic acid derivatives” (Bayer Aktiengesellschaft, priority 2018, dated 2025):

What was measured:
[1] = test system: ALOMY; test: Pre-emergence herbicidal action against ALOMY; type: in vivo, Alopecurus myosuroides; details: application rate 80 g/ha, scored visually after about 3 weeks vs untreated controls (100% = plants have died, 0% = like control plants)
From the text: (§1) 1. Pre-emergence herbicidal action against harmful plants and crop plant compatibility Seeds of monocotyledonous and dicotyledonous weed plants and crop plants are placed in plastic or wood-fibre pots and covered with soil. The compounds of the invention, formulated in the form of wettable powders (WP) or as emulsion concentrates (EC), are then applied onto the surface of the covering soil as aqueous suspension or emulsion with addition of 0.5% additive at a water application rate of 600 l/ha (converted). After the treatment, the pots are placed in a greenhouse and kept under good growth conditions for the trial plants. After about 3 weeks, the effect of the preparations is scored visually in comparison with untreated controls as percentages. For example, 100% activity=the plants have died, 0% activity=like control plants. [table]

[2] = test system: AVEFA; test: Pre-emergence herbicidal action against AVEFA; type: in vivo, Avena fatua; details: application rate 80 g/ha, scored visually after about 3 weeks vs untreated controls (100% = plants have died, 0% = like control plants)
From the text: as §1

[3] = test system: STEME; test: Pre-emergence herbicidal action against STEME; type: in vivo, Stellaria media; details: application rate 80 g/ha
From the text: as §1

[4] = test system: VIOTR; test: Pre-emergence herbicidal action against VIOTR; type: in vivo, Viola tricolor; details: application rate 80 g/ha
From the text: as §1

[5] = test system: ECHCG; test: Pre-emergence herbicidal action against ECHCG; type: in vivo, Echinochloa crus-galli; details: application rate 80 g/ha, scored visually after about 3 weeks vs untreated controls (100% = plants have died, 0% = like control plants)
From the text: as §1

[6] = test system: LOLRI; test: Pre-emergence herbicidal action against LOLRI; type: in vivo, Lolium rigidum; details: application rate 80 g/ha, scored visually after about 3 weeks vs untreated controls (100% = plants have died, 0% = like control plants)
From the text: as §1

[7] = test system: SETVI; test: Pre-emergence herbicidal action against SETVI; type: in vivo, Setaria viridis; details: application rate 80 g/ha, scored visually after about 3 weeks vs untreated controls (100% = plants have died, 0% = like control plants)
From the text: as §1

[8] = test system: AMARE; test: Pre-emergence herbicidal action against AMARE; type: in vivo, Amaranthus retroflexus; details: application rate 80 g/ha
From the text: as §1

[9] = test system: PHBPU; test: Pre-emergence herbicidal action against PHBPU; type: in vivo, Pharbitis purpurea; details: application rate 80 g/ha
From the text: as §1

[10] = test system: POLCO; test: Pre-emergence herbicidal action against POLCO; type: in vivo, Polygonum convolvulus; details: application rate 80 g/ha
From the text: as §1

[11] = test system: HORMU; test: Pre-emergence herbicidal action against HORMU; type: in vivo, Hordeum murinum; details: application rate 80 g/ha
From the text: as §1

[12] = test system: ALOMY; test: Post-emergence herbicidal action against ALOMY; type: in vivo, Alopecurus myosuroides; details: application rate 80 g/ha, rated visually after about 3 weeks
Outline: (§2)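 Visual rating of activity (0% = as untreated control, 100% = plants dead) about 3 weeks after treatment. Plants were sprayed at the one-leaf stage, 2 to 3 weeks post-sowing in sandy loam, with WP or EC formulations plus 0.5% additive at 600 l/ha water.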

[13] = test system: AVEFA; test: Post-emergence herbicidal action against AVEFA; type: in vivo, Avena fatua; details: application rate 80 g/ha, rated visually after about 3 weeks
Outline: as §2

[14] = test system: ECHCG; test: Post-emergence herbicidal action against ECHCG; type: in vivo, Echinochloa crus-galli; details: application rate 80 g/ha, rated visually after about 3 weeks
Outline: as §2

[15] = test system: LOLRI; test: Post-emergence herbicidal action against LOLRI; type: in vivo, Lolium rigidum; details: application rate 80 g/ha, rated visually after about 3 weeks
Outline: as §2

[16] = test system: SETVI; test: Post-emergence herbicidal action against SETVI; type: in vivo, Setaria viridis; details: application rate 80 g/ha, rated visually after about 3 weeks
Outline: as §2

[17] = test system: AMARE; test: Post-emergence herbicidal action against AMARE; type: in vivo, Amaranthus retroflexus; details: application rate 80 g/ha, rated visually about 3 weeks after treatment
Outline: as §2

[18] = test system: POLCO; test: Post-emergence herbicidal action against POLCO; type: in vivo, Polygonum convolvulus; details: application rate 80 g/ha, rated visually about 3 weeks after treatment
Outline: as §2

[19] = test system: STEME; test: Post-emergence herbicidal action against STEME; type: in vivo, Stellaria media; details: application rate 80 g/ha, rated visually about 3 weeks after treatment
Outline: as §2

[20] = test system: VIOTR; test: Post-emergence herbicidal action against VIOTR; type: in vivo, Viola tricolor; details: application rate 80 g/ha, rated visually about 3 weeks after treatment
Outline: as §2

[21] = test system: HORMU; test: Post-emergence herbicidal action against HORMU; type: in vivo, Hordeum murinum; details: application rate 80 g/ha
Outline: as §2

[22] = test system: VERPE; test: Pre-emergence herbicidal action against VERPE; type: in vivo, Veronica persica; details: application rate 80 g/ha
From the text: as §1

[23] = test system: ABUTH; test: Post-emergence herbicidal action against ABUTH; type: in vivo, Abutilon theophrasti; details: application rate 80 g/ha, rated visually about 3 weeks after treatment
Outline: as §2

[24] = test system: PHBPU; test: Post-emergence herbicidal action against PHBPU; type: in vivo, Pharbitis purpurea; details: application rate 80 g/ha, rated visually about 3 weeks after treatment
Outline: as §2

[25] = test system: VERPE; test: Post-emergence herbicidal action against VERPE; type: in vivo, Veronica persica; details: application rate 80 g/ha
Outline: as §2

[26] = test system: MATIN; test: Post-emergence herbicidal action against MATIN; type: in vivo, Matricaria inodora; details: application rate 80 g/ha, rated visually about 3 weeks after treatment
Outline: as §2

SMILES	Herbicidal action against [%] ALOMY [1]	Herbicidal action against [%] STEME [3]	Herbicidal action against [%] AMARE [8]	Herbicidal action against [%] HORMU [11]	Herbicidal action against [%] ALOMY [12]	Herbicidal action against [%] AVEFA [13]	Herbicidal action against [%] ECHCG [14]	Herbicidal action against [%] LOLRI [15]	Herbicidal action against [%] SETVI [16]	Herbicidal action against [%] AMARE [17]	Herbicidal action against [%] POLCO [18]	Herbicidal action against [%] STEME [19]	Herbicidal action against [%] HORMU [21]	other results
CN(C)NC(=O)C1=CCC(NC(=O)C2(C)CC(c3cccc(F)c3)=NO2)C1 (mixture of isomers) [IV-05]	80%	90%												Herbicidal action against [%] AVEFA [2]: 80%; Herbicidal action against [%] VIOTR [4]: 100%
CN(C)NC(=O)C1=CCC(NC(=O)C2(C)CC(c3cccc(F)c3)=NO2)C1 (mixture of isomers) [IV-06]	100%	90%	80%	90%	90%	90%	80%	80%	80%	80%	80%	80%	90%	Herbicidal action against [%] ECHCG [5]: 90%; Herbicidal action against [%] LOLRI [6]: 100%; Herbicidal action against [%] SETVI [7]: 100%; Herbicidal action against [%] PHBPU [9]: 90%; Herbicidal action against [%] POLCO [10]: 80%; Herbicidal action against [%] VIOTR [4]: 100%; Herbicidal action against [%] VIOTR [20]: 90%
CCOC(=O)C1=CC[C@@H](NC(=O)C2(C)CC(c3cccc(F)c3)=NO2)C1 (stereo partly drawn) [III-05]				80%				80%					90%	
CC1(C(=O)NC2C=CC(C(=O)NS(C)(=O)=O)C2)CC(c2cccc(F)c2)=NO1 (mixture of isomers) [II-13]		100%												
CONC(=O)C1=CCC(NC(=O)C2(C)CC(c3cccc(F)c3)=NO2)C1 (mixture of isomers) [IV-04]	90%	90%	90%	90%	90%	90%	80%	90%	80%	80%	80%	80%	90%	Herbicidal action against [%] AVEFA [2]: 90%; Herbicidal action against [%] ECHCG [5]: 90%; Herbicidal action against [%] LOLRI [6]: 100%; Herbicidal action against [%] SETVI [7]: 100%; Herbicidal action against [%] VIOTR [20]: 80%
COC(=O)C1=CC[C@@H](NC(=O)C2(C)CC(c3cccc(F)c3)=NO2)C1 (mixture of isomers) [III-03, methyl (4R)-4-[[[(5SR)-3-(3-fluorophenyl)-5-methyl-4H-1,2-oxazol-5-yl]carbonyl]amino]cyclopentene-1-carboxylate]						90%		80%					90%	Herbicidal action against [%] VERPE [22]: 80%
CC1(C(=O)N[C@H]2C=C[C@@H](C(=O)N3CCCO3)C2)CC(c2cc(F)cc(F)c2)=NO1 (stereo partly drawn) [II-06]	90%	90%	100%	100%	90%	80%	80%	90%	80%	80%	80%	80%	80%	Herbicidal action against [%] AVEFA [2]: 90%; Herbicidal action against [%] ECHCG [5]: 90%; Herbicidal action against [%] LOLRI [6]: 100%; Herbicidal action against [%] SETVI [7]: 100%; Herbicidal action against [%] POLCO [10]: 80%; Herbicidal action against [%] VIOTR [4]: 100%; Herbicidal action against [%] VERPE [22]: 90%; Herbicidal action against [%] ABUTH [23]: 80%; Herbicidal action against [%] PHBPU [24]: 80%; Herbicidal action against [%] VERPE [25]: 80%
CCONC(=O)[C@H]1C=C[C@@H](NC(=O)C2(C)CC(c3cccc(F)c3)=NO2)C1 (stereo partly drawn) [II-03]														Herbicidal action against [%] VIOTR [4]: 90%
CONC(=O)C1=CC[C@@H](NC(=O)C2(C)CC(c3cccc(F)c3)=NO2)C1 (mixture of isomers) [IV-03, (5SR)-3-(3-Fluorophenyl)-N-[(1R)-3-[(methoxyamino)carbonyl]cyclopent-3-en-1-yl]-5-methyl-4H-1,2-oxazole-5-carboxamide]	90%							90%						
CC1(C(=O)N[C@@H]2CC=C(C(=O)O)C2)CC(c2cccc(F)c2)=NO1 (mixture of isomers) [III-01, (4R)-4-[[[(5SR)-3-(3-fluorophenyl)-5-methyl-4H-1,2-oxazol-5-yl]carbonyl]amino]cyclopentene-1-carboxylic acid]				80%		80%								Herbicidal action against [%] VERPE [22]: 90%
CC(C)ONC(=O)[C@H]1C=C[C@@H](NC(=O)C2(C)CC(c3cccc(F)c3)=NO2)C1 (stereo partly drawn) [II-05]		90%												
O=C(OCc1ccccc1)C1C=CC(NC(=O)C2(C(F)(F)F)CC(c3cc(F)cc(F)c3)=NO2)C1 (mixture of isomers) [Example I-065]					90%	90%	90%	90%	90%	80%	90%	90%	90%	Herbicidal action against [%] ABUTH [23]: 80%; Herbicidal action against [%] MATIN [26]: 80%; Herbicidal action against [%] PHBPU [24]: 80%; Herbicidal action against [%] VIOTR [20]: 90%; Herbicidal action against [%] VERPE [25]: 80%
CN(C)C(=O)C1=CCC(NC(=O)C2(C)CC(c3cccc(F)c3)=NO2)C1 (mixture of isomers) [IV-01]	90%	90%	90%	90%										Herbicidal action against [%] AVEFA [2]: 90%; Herbicidal action against [%] LOLRI [6]: 100%; Herbicidal action against [%] SETVI [7]: 90%; Herbicidal action against [%] POLCO [10]: 90%
COCCOC(=O)[C@@H]1C=C[C@H](NC(=O)[C@@]2(C)CC(c3cc(F)cc(F)c3)=NO2)C1 [Example I-092]					90%	90%	80%	90%	80%	90%	80%	90%	100%	Herbicidal action against [%] ABUTH [23]: 90%; Herbicidal action against [%] MATIN [26]: 90%; Herbicidal action against [%] PHBPU [24]: 80%; Herbicidal action against [%] VIOTR [20]: 80%; Herbicidal action against [%] VERPE [25]: 90%
CCOC(=O)[C@H]1C=C[C@@H](NC(=O)C2(C)CC(c3cccc(F)c3)=NO2)C1 (stereo partly drawn) [Example I-005]			80%											
